Test results reported in paper PMC9666779 (Frontiers in Pharmacology, 2022).
Bridge positions count the residues as written; N and C are the ends. Square brackets hold non-standard residues; d marks the D form. Peptide text beside a SMILES is read from it.

Test system: pseudotyped SARS-CoV-2 Omicron BA.2.75
Details: pseudotyped Omicron BA.2.75, 1 h, 2 μM

CC(C)C[C@@H]1NC(=O)[C@H](C(C)C)NC(=O)[C@H](C)NC(=O)[C@H](Cc2ccc(O)cc2)NC(=O)[C@H](CCC(N)=O)NC(=O)[C@H](CC(C)C)NC(=O)[C@@H](Cc2ccccc2)NC(=O)[C@H](N)CSSC[C@H](C(=O)NCC(=O)NCC(=O)NCC(=O)N[C@@H](CCCNC(=N)N)C(=O)N2CCC[C@H]2C(=O)N2CCC[C@H]2C(=O)N[C@@H](CCCNC(=N)N)C(=O)N[C@@H](CCCNC(=N)N)C(=O)N[C@@H](C)C(=O)N[C@@H](CCCNC(=N)N)C(=O)O)NC(=O)[C@H](CCC(=O)O)NC(=O)[C@H](CCCNC(=N)N)NC(=O)[C@H](CCCNC(=N)N)NC(=O)[C@H](CCCCN)NC(=O)[C@H](CCC(N)=O)NC(=O)[C@H](CCCCN)NC1=O [MN-2] (H-[dC][dF]LQYAVLKQKRRE[dC]GGGRPPRRAR-OH; disulfide 1-15)
inhibition rate of the variant Omicron BA.2.75 pseudovirus: about 80%
